Measurements as given in PMC11052913, “Determination of Regorafenib monohydrate (colorectal anticancer drug) solubility in supercritical CO2: Experimental and thermodynamic modeling” (Heliyon, 2024).
Counter-ions that a name gives are not always drawn. Like-named read-outs stand apart in the source and are kept apart here. Marks after values point to notes of the source that are not given here.

Tests used:
[1] = cited from earlier work
[2] = Total, vaporization and solvation enthalpies of the REG-ScCO2 system estimated from Chrastil, Kumar-Johnston and Bartle et al. model constants; assay type: physicochemical
Source text: In Fig. 3, the self-consistency test of experimental REG solubility data employed the models Chrastil, Kumar-Johnston, Bartle et al., and Mendez-Teja. […] In other words, wherein all data points at different isotherms falls onto a single straight line, indicating the self-consistency test for the solubility of REG in ScCO2 at different temperatures.
Analogous techniques were applied for Galantamine, Clonazepam, Lansoprazole, and Esomeprazole. Finally, the total (ΔHtot-=-41.16 kJ/mol), vaporization (ΔHvap-=-60.04 kJ/mol), and solvation (ΔHsol-=-18.88 kJ/mol) enthalpies for the REG-ScCO2 binary system were estimated as part of this work. More detail of enthalpies of the REG can be seen in Table 4.

[3] = parameters: method as in PMID 28214672, doi:10.1016/j.jddst.2019.101462; settings: pH 6.5 and 22–23 °C; cited from earlier work
[4] = Solubility of REG in supercritical CO2, static isobaric-isothermal method with UV-Vis quantification; assay type: physicochemical
Protocol: The solubility of REG in ScCO2 was measured using a pilot-scale apparatus, as depicted in Fig. 1. […] An F-1 CO2 cylinder, an F-2 needle valve, an F-3 molecular sieve filter, an F-4 refrigeration unit, an F-5 high-pressure pump, an F-6 air compressor, an F-7 oven, an F-8 magnetic stirrer, an F-9 high-pressure equilibrium cell, an F-10 3-position valve, and an F-16 back-pressure valve were all part of the apparatus.
In each experimental trial, a consistent amount of 1 g of the REG drug was administered into the immobile cell, which was subsequently positioned inside a thermal chamber. The aforementioned measure was enacted with the purpose of ensuring that the temperature remains within a narrow range of ±0.1 K from the designated experimental point. At both cell ends, stainless-steel sintered filters were added to limit undissolved REG. After that, high-pressure CO2 was poured into the cell and allowed to sit for 70 min in order to obtain saturation. Based on earlier studies, we know that 60 min is sufficient to achieve balance. The isobaric-isothermal category includes this kind of measurement. Throughout the experiment, the target temperatures and pressure levels were kept within ±0.1 K and ±0.1 MPa, respectively, for every data point. Following the triplicate execution of the experiments, the average solubility values were computed.
After reaching equilibrium, we used a 2-position 6-way port valve to collect 600 μL of saturated ScCO2 samples. The materials were thereafter transferred into a vial that was pre-filled with dimethyl sulfoxide (DMSO). The flow rate was managed by means of a micrometer valve. Each experiment was finished with the flow line being purified with 1 mL of DMSO after 5 mL of the solution had been collected. Using a UNICO-4802 UV–Vis spectrophotometer set to a peak wavelength (λmax) of 275 nm, we examined the absorbance of REG in DMSO for solubility assessment. The solubility of REG in ScCO2 was determined according to a given equation. The amount of REG dissolved in ScCO2, denoted as (y2), was measured in terms of mole fraction. […] The quantification of the dissolved substance was accomplished through the measurement of UV absorbance. The calculation of the moles of REG (nREG) and CO2 (n1) in the loop was performed as follows:(1) nREG=CREG(g/L).VREG(L)/MREG(g/mol) (2) n1=V1(L).ρ1(g/L)/M1(g/mol)
The concentration of REG (g/L) in the collection vial is denoted as CREG. The sampling loop and the collection vial are represented by V1 (L) and VREG (L), respectively. The symbols M1 and MREG represent the molar masses of carbon dioxide (CO2) and a substance denoted as REG, respectively. The method out-lined in references was employed to determine the equilibrium mole fraction of REG, denoted as y2, in supercritical CO2 under varying temperatures and pressures.(3) y2=nREG/n1+nREG
The following equation was applied to determine the solubility of REG, S (in g/L), in the supercritical CO2(4) S=CREG(g/L).VREG(L)/V1(L)
Eq. (4) can be reformulated as below:(5) S=ρMREG/M1y2/(1−y2) In fact, Eq. (5) is another form of Eq. (4).

## CC(=O)N(c1ccccc1)c1ccc(C)cc1 [4-Methyl-N-phenylacetanilide]
[1]; N 21, T 308-328 K, P 12.16-22.5 MPa, ref [2] of supplement
  Mole fraction solubility in ScCO2: 38.4-480.2 (×10^6) mole fraction

## Cc1ccc(C(=O)O)cc1 [4-Methylbenzoic acid]
[1]; N 18, T 313-333 K, P 11-24.6 MPa, ref [3] of supplement
  Mole fraction solubility in ScCO2: 43-702 (×10^6) mole fraction

## CS(=O)(=O)OCCCCOS(C)(=O)=O [Busulfan]
[1]; N 32, T 308-328 K, P 12-40 MPa, ref [5] of supplement
  Mole fraction solubility in ScCO2: 32.7-865 (×10^6) mole fraction

## O=C(O)c1ccccc1Nc1cccc(Cl)c1Cl [Clofenamic acid]
[1]; N 24, T 313-333 K, P 12-36 MPa, ref [9] of supplement
  Mole fraction solubility in ScCO2: 1.54-35.44 (×10^6) mole fraction

## CC(C)(Oc1ccc(Cl)cc1)C(=O)O [Clofibric acid]
[1]; N 21, T 308-328 K, P 10.01-22.02 MPa, clofibric acid, ref [7] of supplement
  Mole fraction solubility in ScCO2: 32.1-856 (×10^6) mole fraction

## O=C1CN=C(c2ccccc2Cl)c2cc([N+](=O)[O-])ccc2N1 [Clonazepam]
[1]; N 28, T 308-338 K, P 12-30 MPa, ref [1] of supplement
  Mole fraction solubility in ScCO2: 3.9-72.6 (×10^6) mole fraction

## Cc1nc(Nc2ncc(C(=O)Nc3c(C)cccc3Cl)s2)cc(N2CCN(CCO)CC2)n1 [Dasatinib monohydrate]
[1]; N 24, T 328-338 K, P 12-27 MPa, ref [11] of supplement
  Mole fraction solubility in ScCO2: 0.45 - 9.08 (×10^6) mole fraction

## Cc1ccc(C)c(OCCCC(C)(C)C(=O)O)c1 [Gemfibrozil]
[1]; N 21, T 308-328 K, P 10.01-22.02 MPa, gemfibrozil, ref [7] of supplement
  Mole fraction solubility in ScCO2: 29.4-4190 (×10^6) mole fraction

## Nc1nnc(-c2cccc(Cl)c2Cl)c(N)n1 [Lamotrigine]
[1]; N 36, T 318-338 K, P 12.16-35.46 MPa, ref [8] of supplement
  Mole fraction solubility in ScCO2: 0.3-5.9 (×10^6) mole fraction

## COc1cc2nc(N3CCN(C(=O)c4ccco4)CC3)nc(N)c2cc1OC [Prazosin Hydrochloride]
[1]; N 24, T 328-338 K, P 12-27 MPa, ref [12] of supplement
  Mole fraction solubility in ScCO2: 1.5-72 (×10^6) mole fraction

## CNC(=O)c1cc(Oc2ccc(NC(=O)Nc3ccc(Cl)c(C(F)(F)F)c3)c(F)c2)ccn1 [Regorafenib monohydrate, 4-(4-(3-(4-chloro-3-(trifluoromethyl)phenyl)ureido)-3-fluorophenoxy)-N-methylpicolinamide]
[2]; based on Bartle et al. model
  vaporization enthalpy ΔHvap: 14.35 kcal/mol
[2]; based on Kumar-Johnston model
  ΔHtot: 9.833 kcal/mol
[2]; based on the Chrastil model
  ΔHtot: 9.84 kcal/mol
[3]
  solubility in water: 0.12 µg/mL
[4]; 308 K, 120 bar, CO2 density 769 kg/m^3
  S (equilibrium solubility) in ScCO2: 10.6 µg/mL
[4]; 308 K, 150 bar, CO2 density 817 kg/m^3
  S (equilibrium solubility) in ScCO2: 15.5 µg/mL
[4]; 308 K, 180 bar, CO2 density 849 kg/m^3
  S (equilibrium solubility) in ScCO2: 18 µg/mL
[4]; 308 K, 210 bar, CO2 density 875 kg/m^3
  S (equilibrium solubility) in ScCO2: 22.6 µg/mL
[4]; 308 K, 240 bar, CO2 density 896 kg/m^3
  S (equilibrium solubility) in ScCO2: 29.2 µg/mL
[4]; 308 K, 270 bar, CO2 density 914 kg/m^3
  S (equilibrium solubility) in ScCO2: 31.5 µg/mL
[4]; 318 K, 120 bar, CO2 density 661 kg/m^3
  S (equilibrium solubility) in ScCO2: 7.2 µg/mL
[4]; 318 K, 150 bar, CO2 density 744 kg/m^3
  S (equilibrium solubility) in ScCO2: 9.8 µg/mL
[4]; 318 K, 180 bar, CO2 density 791 kg/m^3
  S (equilibrium solubility) in ScCO2: 12.4 µg/mL
[4]; 318 K, 210 bar, CO2 density 824 kg/m^3
  S (equilibrium solubility) in ScCO2: 28.7 µg/mL
[4]; 318 K, 240 bar, CO2 density 851 kg/m^3
  S (equilibrium solubility) in ScCO2: 31.9 µg/mL
[4]; 318 K, 270 bar, CO2 density 872 kg/m^3
  S (equilibrium solubility) in ScCO2: 37.2 µg/mL
[4]; 328 K, 120 bar, CO2 density 509 kg/m^3
  S (equilibrium solubility) in ScCO2: 3.6 µg/mL
[4]; 328 K, 150 bar, CO2 density 656 kg/m^3
  S (equilibrium solubility) in ScCO2: 7 µg/mL
[4]; 328 K, 180 bar, CO2 density 725 kg/m^3
  S (equilibrium solubility) in ScCO2: 10 µg/mL
[4]; 328 K, 210 bar, CO2 density 769 kg/m^3
  S (equilibrium solubility) in ScCO2: 33.1 µg/mL
[4]; 328 K, 240 bar, CO2 density 802 kg/m^3
  S (equilibrium solubility) in ScCO2: 37.1 µg/mL
[4]; 328 K, 270 bar, CO2 density 829 kg/m^3
  S (equilibrium solubility) in ScCO2: 39.2 µg/mL
[4]; 338 K, 120 bar, CO2 density 388 kg/m^3
  S (equilibrium solubility) in ScCO2: 1.3 µg/mL
[4]; 338 K, 150 bar, CO2 density 557 kg/m^3
  S (equilibrium solubility) in ScCO2: 3.7 µg/mL
[4]; 338 K, 180 bar, CO2 density 652 kg/m^3
  S (equilibrium solubility) in ScCO2: 7.2 µg/mL
[4]; 338 K, 210 bar, CO2 density 710 kg/m^3
  S (equilibrium solubility) in ScCO2: 34.6 µg/mL
[4]; 338 K, 240 bar, CO2 density 751 kg/m^3
  S (equilibrium solubility) in ScCO2: 41 µg/mL
[4]; 338 K, 270 bar, CO2 density 783 kg/m^3
  S (equilibrium solubility) in ScCO2: 55.3 µg/mL
[4]; isotherms 308–338 K
  crossover pressure of the solubility isotherms in ScCO2: 18–21 MPa
[4]; over 308–338 K and 120–270 bar, maximum at 338 K and 27 MPa, listed as REG
  maximum equilibrium mole fraction in ScCO2: 6.44×10^−6 mole fraction
[4]; over 308–338 K and 120–270 bar, minimum at 338 K, listed as REG
  minimum equilibrium mole fraction in ScCO2: 3.06×10^−7 mole fraction
